Measurements published in PubChem BioAssay AID2060886 (Molecular Pharmacology Branch, DTP, NCI, 2025).
Blank lines part the entries; values can stand above or below the compound they belong to.

System: 653999-131-R-J2-PDC complex spheroids, growth inhibition
Experiment: Anticancer human tumor 653999-131-R-J2-PDC patient-derived lung adenocarcinoma cell line growth inhibition [RAS]
Details: for viability, T/C: stronger effect = lower value
How it was run: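 Multi-cell-type spheroids: tumor cells plus HUVEC endothelial cells and mesenchymal stem cells. RAS-pathway inhibitors were combined with targeted agents, each dosed in half-log steps down from clinical Cmax, or from 10 microM when Cmax was unknown.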
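Further: spheroids exposed to the agents for seven days before the readout.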

IC50 (compound alone, run of 09/09/2024): 1.88 µM [middle of 8 runs]
SMILES: C#Cc1c(F)ccc2cc(O)cc(-c3ncc4c(N5CC6CCC(C5)N6)nc(OCC56CCCN5CC(F)C6)nc4c3F)c12 (centres undefined)
viability, T/C (compound 0.0316 µM): 99% [middle of 8 runs]
viability, T/C (compound 0.1 µM): 89.6% [middle of 8 runs]
viability, T/C (compound 0.316 µM): 71.2% [middle of 8 runs]
viability, T/C (compound 1 µM): 58.1% [middle of 8 runs]
viability, T/C (compound 3.16 µM): 43.8% [middle of 8 runs]
viability, T/C (compound 10 µM): 31.8% [middle of 8 runs]

IC50 (curve of first compound, second compound 0.000949 µM): < 31.6 nM
IC50 (curve of first compound, second compound 0.003 µM): < 31.6 nM
IC50 (curve of first compound, second compound 0.00949 µM): < 31.6 nM
IC50 (curve of first compound, second compound 0.03 µM): < 31.6 nM
IC50 (curve of first compound, second compound 0.0949 µM): < 31.6 nM
IC50 (curve of first compound, second compound 0.3 µM): < 31.6 nM
SMILES: CC(=O)OC12COC1CC(O)C1(C)C(=O)C(O)C3=C(C)C(OC(=O)C(O)C(NC(=O)OC(C)(C)C)c4ccccc4)CC(O)(C(OC(=O)c4ccccc4)C21)C3(C)C (centres undefined) + CCn1c(-c2cc(N3CCN(C)CC3)cnc2C(C)OC)c2c3cc(ccc31)-c1csc(n1)CC(NC(=O)C1CC1C)C(=O)N1CCCC(N1)C(=O)OCC(C)(C)C2
viability, T/C (second compound 0.000949 µM, first compound 0.0316 µM): 38.1%
viability, T/C (second compound 0.000949 µM, first compound 0.1 µM): 39.4%
viability, T/C (second compound 0.000949 µM, first compound 0.316 µM): 42.8%
viability, T/C (second compound 0.000949 µM, first compound 1 µM): 43.5%
viability, T/C (second compound 0.000949 µM, first compound 3.16 µM): 48.8%
viability, T/C (second compound 0.000949 µM, first compound 10 µM): 51.6%
viability, T/C (second compound 0.003 µM, first compound 0.0316 µM): 29.9%
viability, T/C (second compound 0.003 µM, first compound 0.1 µM): 27%
viability, T/C (second compound 0.003 µM, first compound 0.316 µM): 27.6%
viability, T/C (second compound 0.003 µM, first compound 1 µM): 35.4%
viability, T/C (second compound 0.003 µM, first compound 3.16 µM): 30.9%
viability, T/C (second compound 0.003 µM, first compound 10 µM): 31.7%
viability, T/C (second compound 0.00949 µM, first compound 0.0316 µM): 14.9%
viability, T/C (second compound 0.00949 µM, first compound 0.1 µM): 21%
viability, T/C (second compound 0.00949 µM, first compound 0.316 µM): 20.7%
viability, T/C (second compound 0.00949 µM, first compound 1 µM): 21.9%
viability, T/C (second compound 0.00949 µM, first compound 3.16 µM): 21.7%
viability, T/C (second compound 0.00949 µM, first compound 10 µM): 19.1%
viability, T/C (second compound 0.03 µM, first compound 0.0316 µM): 13.3%
viability, T/C (second compound 0.03 µM, first compound 0.1 µM): 13.2%
viability, T/C (second compound 0.03 µM, first compound 0.316 µM): 12.8%
viability, T/C (second compound 0.03 µM, first compound 1 µM): 13.2%
viability, T/C (second compound 0.03 µM, first compound 3.16 µM): 14%
viability, T/C (second compound 0.03 µM, first compound 10 µM): 13.1%
viability, T/C (second compound 0.0949 µM, first compound 0.0316 µM): 11.5%
viability, T/C (second compound 0.0949 µM, first compound 0.1 µM): 12.1%
viability, T/C (second compound 0.0949 µM, first compound 0.316 µM): 13.8%
viability, T/C (second compound 0.0949 µM, first compound 1 µM): 10.6%
viability, T/C (second compound 0.0949 µM, first compound 3.16 µM): 12.6%
viability, T/C (second compound 0.0949 µM, first compound 10 µM): 12.2%
viability, T/C (second compound 0.3 µM, first compound 0.0316 µM): 8.97%
viability, T/C (second compound 0.3 µM, first compound 0.1 µM): 10.1%
viability, T/C (second compound 0.3 µM, first compound 0.316 µM): 12%
viability, T/C (second compound 0.3 µM, first compound 1 µM): 13.4%
viability, T/C (second compound 0.3 µM, first compound 3.16 µM): 12.2%
viability, T/C (second compound 0.3 µM, first compound 10 µM): 12.3%
